Experimental data taken from US10004732B2 (Novartis AG, priority 2014, dated 2018).
Structures can show the parent of a compound that is named as a salt.

Tests used:
[1] = biological target: T1, PI 3-kinase gamma (Homo sapiens, UniProt P48736); experiment: Cellular U937 AKT assay K2 (HTRF); type: cell-based; settings: U937 cells, K2 format; read-out: Assay K2 PI3Kγ IC50
Protocol: In assays K1 and K2, the compounds were tested for their ability to inhibit the production of phosphorylated AKT (Protein Kinase B) generated in a PI 3-kinase gamma isoform-dependent process in a U937 human cell line.
Cellular U937 AKT Assay for PI 3-Kinase Gamma (K2)
U937 cells are split every 3-4 days: 5×10^6 cells/flask (175 cm^2) in 40 ml.
Semi-automated preparation of cell lysates: Cells were resuspended in HBSS, seeded (200′000 cells/well/60 μl) into a 384-well plate and incubated in a humidified 37° C., 5% CO2 incubator for 1.5 hours. The compounds were diluted with HBSS and 40 μl were added to the starved cells (except for wells 24 I-P). […] The cells were then incubated for 30 minutes at 37° C. and 5% CO2. Stimulation occurred during 3 minutes by addition of 20 μl MIP1α (final 10 ng/ml, diluted in HBSS) in the incubator. Wells 24 A-H were only stimulated with HBSS.
The stimulation was then stopped by putting the cell plates on ice (filled with cold water). The cells were then centrifuged at 1200 rpm and 4° C. for 3 minutes.
80 μl of supernatant was removed. The cells were again centrifuged at 1200 rpm and 4° C. for 3 minutes. The supernatant was then removed by turning plates upside down and 30 μl of lysis buffer were added. The plate was incubated at room temperature for 30 minutes under shaking. 16 μl were then transferred to a ProxiPlate Plus 384-well. 4 μl of the master mix (each conjugate diluted 1:20 with detection reagent) were added to each well and the plate was kept in the dark at room temperature for 4 hours.

[2] = biological target: T2, PI 3-kinase delta (Homo sapiens, UniProt O00329); experiment: TR-FRET Adapta assay, assay F; settings: read-out: Assay F PI3Kδ IC50
Target sequence in this assay (O00329 whole entry): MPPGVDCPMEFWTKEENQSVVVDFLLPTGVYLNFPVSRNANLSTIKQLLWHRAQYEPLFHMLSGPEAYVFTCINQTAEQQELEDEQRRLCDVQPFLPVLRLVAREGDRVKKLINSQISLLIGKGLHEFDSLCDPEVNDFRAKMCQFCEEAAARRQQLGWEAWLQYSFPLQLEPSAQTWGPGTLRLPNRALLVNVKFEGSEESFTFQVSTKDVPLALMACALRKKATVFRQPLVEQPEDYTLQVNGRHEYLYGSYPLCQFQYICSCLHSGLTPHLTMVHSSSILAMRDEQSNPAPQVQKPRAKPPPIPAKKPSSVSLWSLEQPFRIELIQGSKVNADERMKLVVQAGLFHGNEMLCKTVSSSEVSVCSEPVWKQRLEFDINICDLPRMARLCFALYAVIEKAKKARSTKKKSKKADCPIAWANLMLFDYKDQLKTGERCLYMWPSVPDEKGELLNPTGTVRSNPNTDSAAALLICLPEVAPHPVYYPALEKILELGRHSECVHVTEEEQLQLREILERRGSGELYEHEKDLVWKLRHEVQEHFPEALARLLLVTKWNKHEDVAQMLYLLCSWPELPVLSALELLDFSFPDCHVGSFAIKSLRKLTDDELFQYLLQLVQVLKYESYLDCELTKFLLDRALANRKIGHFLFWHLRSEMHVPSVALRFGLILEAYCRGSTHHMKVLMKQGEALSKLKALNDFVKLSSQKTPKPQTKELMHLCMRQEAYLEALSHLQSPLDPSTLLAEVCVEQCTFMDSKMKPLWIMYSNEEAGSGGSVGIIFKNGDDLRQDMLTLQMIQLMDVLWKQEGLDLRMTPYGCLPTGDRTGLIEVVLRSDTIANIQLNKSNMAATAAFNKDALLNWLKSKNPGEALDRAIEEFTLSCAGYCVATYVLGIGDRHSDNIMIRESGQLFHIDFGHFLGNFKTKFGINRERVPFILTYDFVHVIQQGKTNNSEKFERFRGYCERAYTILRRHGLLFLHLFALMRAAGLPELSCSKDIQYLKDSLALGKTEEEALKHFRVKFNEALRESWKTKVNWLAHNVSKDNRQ
Target sequence in this assay (P27986 461-568 partner): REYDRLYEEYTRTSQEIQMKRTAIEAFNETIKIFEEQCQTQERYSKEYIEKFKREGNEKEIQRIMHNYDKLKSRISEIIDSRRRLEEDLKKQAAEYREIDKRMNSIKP

[3] = biological target: T1, PI 3-kinase gamma; experiment: Cellular U937 AKT assay K1 (MSD); type: cell-based; settings: U937 cells, K1 format; read-out: Assay K1 PI3Kγ IC50
[4] = biological target: T3, PI 3-kinase beta (Homo sapiens, UniProt P42338); experiment: Kinase Glo Luminescent Kinase Assay (Kglo), assay B; type: biochemical; settings: read-out: Assay B PI3Kβ IC50
Target sequence in this assay (P42338 whole entry): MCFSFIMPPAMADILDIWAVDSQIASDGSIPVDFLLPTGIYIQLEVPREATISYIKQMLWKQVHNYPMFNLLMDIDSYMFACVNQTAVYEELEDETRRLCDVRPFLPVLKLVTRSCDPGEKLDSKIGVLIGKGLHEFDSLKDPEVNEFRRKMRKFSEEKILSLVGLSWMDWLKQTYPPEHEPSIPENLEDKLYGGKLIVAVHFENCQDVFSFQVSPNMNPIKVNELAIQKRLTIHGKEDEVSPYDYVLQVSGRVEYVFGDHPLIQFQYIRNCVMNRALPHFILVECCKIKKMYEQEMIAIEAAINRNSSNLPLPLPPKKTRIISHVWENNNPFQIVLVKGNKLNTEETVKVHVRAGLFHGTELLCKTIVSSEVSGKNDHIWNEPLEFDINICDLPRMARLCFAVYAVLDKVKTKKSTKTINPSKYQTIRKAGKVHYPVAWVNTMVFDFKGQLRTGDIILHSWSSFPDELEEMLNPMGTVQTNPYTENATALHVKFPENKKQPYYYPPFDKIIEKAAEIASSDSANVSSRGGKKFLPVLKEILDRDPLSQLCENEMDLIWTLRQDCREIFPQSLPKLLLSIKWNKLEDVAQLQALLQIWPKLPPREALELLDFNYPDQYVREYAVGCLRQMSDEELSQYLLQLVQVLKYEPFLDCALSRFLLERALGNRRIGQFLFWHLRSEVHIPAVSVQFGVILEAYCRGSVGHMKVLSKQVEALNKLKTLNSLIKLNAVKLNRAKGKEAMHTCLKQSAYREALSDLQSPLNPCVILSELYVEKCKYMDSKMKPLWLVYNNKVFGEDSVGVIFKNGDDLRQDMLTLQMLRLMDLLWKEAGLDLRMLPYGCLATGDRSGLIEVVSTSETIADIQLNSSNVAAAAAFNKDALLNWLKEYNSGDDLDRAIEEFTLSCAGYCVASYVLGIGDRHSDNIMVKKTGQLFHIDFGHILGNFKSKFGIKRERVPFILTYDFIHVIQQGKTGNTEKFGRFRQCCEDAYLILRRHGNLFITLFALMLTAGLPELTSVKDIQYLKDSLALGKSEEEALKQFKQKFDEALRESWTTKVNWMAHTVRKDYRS
Target sequence in this assay (P27986 461-568 partner): as the sequence (P27986 461-568 partner) above

[5] = biological target: PI 4-kinase beta (Homo sapiens, UniProt Q9UBF8); experiment: Kinase Glo Luminescent Kinase Assay (Kglo), assay D; type: biochemical; settings: read-out: Assay D PI4Kβ IC50
[6] = biological target: mTOR (Homo sapiens, UniProt P42345); experiment: Lanthascreen kinase binding assay, assay G; settings: read-out: Assay G mTOR IC50
Protocol: Lanthascreen™ Kinase Binding Assay for mTOR (G)
Binding of an inhibitor to the kinase competes for binding with the tracer, resulting in a loss of FRET.
50 nL of compound dilutions were dispensed onto white 384-well small volume polystyrene plate.

[7] = biological target: T1, PI 3-kinase gamma; experiment: TR-FRET Adapta assay, assay E; type: biochemical; settings: read-out: Assay E PI3Kγ IC50
Protocol: TR-FRET Adapta Assay for PI 3-Kinase Gamma (E), PI 3-Kinase Delta (F)
The TR-FRET Adapta™ Universal Kinase Assay Kit was purchased from Invitrogen Corporation (Carlsbad/CA, USA) (Cat. No. PV5099).
PIK3CD substrate phosphatidylinositol (PI) was obtained from Invitrogen (vesicules consisting of 2 mM phosphatidylinositol (PI) in 50 mM HEPES pH7.5; Cat. No. PV5371). PIK3CG substrate phosphatidylinositol-4,5-bisphosphate (PIP(4,5)2 was obtained from Invitrogen (PIP2:PS large unilamellar vesicules consisting of 1 mM PIP2: 19 mM PS in 50 mM HEPES pH7.5, 3 mM MgCl2, 1 mM EGTA; Cat. No. PV5100).
Time-Resolved Fluorescence Resonance Energy Transfer (TR-FRET) is a technology based on energy transfer between two adjacent dyes, from an excited electron in one dye (the donor) to an electron of an adjacent dye (the acceptor) through resonance, then released as a photon. This energy transfer is detected by an increase in the fluorescence emission of the acceptor, and a decrease in the fluorescence emission of the donor. TR-FRET assays for protein kinases use a long-lifetime lanthanide Terbium or Europium chelates as the donor species which overcome interference from compound autofluorescence or light scatter from precipitated compounds, by introducing a delay after excitation by a flashlamp excitation source. Results are often expressed as a ratio of the intensities of the acceptor and donor fluorophores. The ratiometric nature of such a value corrects for differences in assay volumes between wells, as well as corrects for quenching effects due to colored compounds. The Adapta™ assay can be divided into two phases: a kinase reaction phase and an ADP detection phase. In the kinase reaction phase, all kinase reaction components are added to the well and the reaction is allowed to incubate for a set period of time specific for each kinase. […] In the presence of an inhibitor, the amount of ADP formed by the kinase reaction is reduced, and the resulting intact antibody-tracer interaction maintains a high TR-FRET signal.
50 nL of compound dilutions were dispensed onto white 384-well small volume polystyrene plate. Then 5 μL of either PI 3-kinase gamma or PI 3-kinase delta and lipid substrate (PI or PIP2:PS) followed by 5 μL of ATP (final assay volume 10 μL) are incubated at RT. The standard reaction buffer for the Adapta™ TR-FRET assay contained 10 mM Tris-HCl pH 7.5, 3 mM MgCl2, 50 mM NaCl, 1 mM DTT, 0.05% CHAPS 3-[(3-cholamidopropyl)dimethylammonio]-1-propanesulfonate).
Data are analyzed using Excel fit software or Graphpad Prism. IC50 values were derived by fitting a sigmoidal dose-response curve to a plot of assay readout over inhibitor concentration. All fits were performed with the program XLfit4 (ID Business Solutions, Guildford, UK). […] All fits were performed with the program XLfit4 (ID Business Solutions, Guildford, UK).

[8] = Microsomal clearance assay (M); settings: intrinsic clearance in rat liver microsomes
Protocol: The experiments were performed in 96-well glass plates at 37° C. on an automated Tecan EVO platform. Test compounds at a concentration of 10 mM in pure DMSO were diluted 1:1000 in water to 10 μM. […] Reactions were initiated by the addition of 150 μL of a cofactor solution containing 2 mM NADPH.

[9] = biological target: T4, PI 3-kinase alpha (Homo sapiens, UniProt P42336); experiment: Cellular assay H1, p-Akt (S473) in Rat-1 cells, Surefire format; type: cell-based; settings: non-asterisked data: version H1 (Surefire format), Rat-1 cells; read-out: Assay H PI3Kα IC50
Target sequence in this assay (P42336 whole entry): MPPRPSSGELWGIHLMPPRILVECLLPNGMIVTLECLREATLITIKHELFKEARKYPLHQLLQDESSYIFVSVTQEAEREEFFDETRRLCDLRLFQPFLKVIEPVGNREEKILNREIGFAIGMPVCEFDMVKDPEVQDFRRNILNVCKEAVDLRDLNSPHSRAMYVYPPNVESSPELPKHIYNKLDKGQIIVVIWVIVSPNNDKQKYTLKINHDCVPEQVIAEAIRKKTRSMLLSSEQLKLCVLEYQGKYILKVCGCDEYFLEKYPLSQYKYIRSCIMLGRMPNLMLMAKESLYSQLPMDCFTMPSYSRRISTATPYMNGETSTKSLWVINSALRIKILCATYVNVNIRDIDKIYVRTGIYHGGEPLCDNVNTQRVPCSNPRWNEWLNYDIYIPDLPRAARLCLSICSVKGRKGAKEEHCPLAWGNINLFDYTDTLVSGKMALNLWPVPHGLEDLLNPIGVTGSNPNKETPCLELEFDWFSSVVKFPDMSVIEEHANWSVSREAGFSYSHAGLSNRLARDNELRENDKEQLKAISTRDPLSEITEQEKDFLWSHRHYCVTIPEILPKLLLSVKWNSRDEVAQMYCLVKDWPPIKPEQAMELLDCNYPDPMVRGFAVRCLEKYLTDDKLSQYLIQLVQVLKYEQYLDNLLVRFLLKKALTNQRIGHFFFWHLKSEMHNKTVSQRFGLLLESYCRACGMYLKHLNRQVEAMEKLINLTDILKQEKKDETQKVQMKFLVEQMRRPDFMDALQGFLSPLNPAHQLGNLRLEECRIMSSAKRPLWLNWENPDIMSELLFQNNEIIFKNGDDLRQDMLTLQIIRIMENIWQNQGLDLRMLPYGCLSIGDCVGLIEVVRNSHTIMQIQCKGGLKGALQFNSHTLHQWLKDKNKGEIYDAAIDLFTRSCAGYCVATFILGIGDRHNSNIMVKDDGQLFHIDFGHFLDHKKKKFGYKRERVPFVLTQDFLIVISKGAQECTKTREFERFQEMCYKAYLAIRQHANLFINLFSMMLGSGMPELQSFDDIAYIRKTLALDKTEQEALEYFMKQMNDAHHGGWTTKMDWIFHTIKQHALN
Target sequence in this assay (Q63787 whole entry partner): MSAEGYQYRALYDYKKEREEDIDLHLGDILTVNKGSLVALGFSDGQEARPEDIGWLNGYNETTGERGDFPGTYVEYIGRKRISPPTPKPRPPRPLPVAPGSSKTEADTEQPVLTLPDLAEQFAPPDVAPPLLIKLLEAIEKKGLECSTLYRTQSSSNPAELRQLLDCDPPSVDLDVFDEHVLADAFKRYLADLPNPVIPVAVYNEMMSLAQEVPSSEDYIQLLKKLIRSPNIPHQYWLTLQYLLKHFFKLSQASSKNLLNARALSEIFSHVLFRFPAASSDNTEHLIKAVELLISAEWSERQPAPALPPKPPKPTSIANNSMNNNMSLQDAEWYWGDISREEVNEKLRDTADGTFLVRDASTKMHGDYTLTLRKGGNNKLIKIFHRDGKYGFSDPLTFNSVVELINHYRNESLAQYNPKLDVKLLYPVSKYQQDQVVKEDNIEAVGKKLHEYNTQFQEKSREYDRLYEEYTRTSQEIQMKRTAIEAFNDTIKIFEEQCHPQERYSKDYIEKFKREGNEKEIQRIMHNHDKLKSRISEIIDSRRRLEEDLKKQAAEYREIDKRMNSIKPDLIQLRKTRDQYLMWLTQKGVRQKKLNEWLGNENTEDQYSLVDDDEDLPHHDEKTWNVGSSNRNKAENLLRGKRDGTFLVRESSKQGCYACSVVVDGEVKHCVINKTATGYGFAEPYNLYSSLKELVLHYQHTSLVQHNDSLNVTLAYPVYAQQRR

[10] = biological target: T4, PI 3-kinase alpha; experiment: Kinase Glo Luminescent Kinase Assay (Kglo), assay A; type: biochemical; settings: read-out: Assay A PI3Kα IC50
[11] = biological target: Vps34 (Homo sapiens, UniProt Q8NEB9); experiment: Kinase Glo Luminescent Kinase Assay (Kglo), assay C; type: biochemical; settings: read-out: Assay C VPS34 IC50
[12] = biological target: T2, PI 3-kinase delta; experiment: Cellular assay J1, p-Akt (S473) in Rat-1 cells, Surefire format; type: cell-based; settings: non-asterisked data: version J1 (Surefire format), Rat-1 cells; read-out: Assay J PI3Kδ IC50
Target sequence in this assay (O00329 whole entry): as the sequence (O00329 whole entry) above
Target sequence in this assay (Q63787 whole entry partner): as the sequence (Q63787 whole entry partner) above

[13] = biological target: T3, PI 3-kinase beta; experiment: Cellular assay I1, p-Akt (S473) in Rat-1 cells, Surefire format; type: cell-based; settings: non-asterisked data: version I1 (Surefire format), Rat-1 cells; read-out: Assay I PI3Kβ IC50
Target sequence in this assay (P42338 whole entry): as the sequence (P42338 whole entry) above
Target sequence in this assay (Q63787 whole entry partner): as the sequence (Q63787 whole entry partner) above

[14] = tested on: IL-8-induced neutrophil shape change in human whole blood; experiment: Whole blood neutrophil shape change assay (L); type: cell-based; settings: Homo sapiens, Neutrophil, IL-8, human whole blood, read-out: Assay L WBSC IC50

Chain of PI 4-kinase beta (Q9UBF8 whole entry): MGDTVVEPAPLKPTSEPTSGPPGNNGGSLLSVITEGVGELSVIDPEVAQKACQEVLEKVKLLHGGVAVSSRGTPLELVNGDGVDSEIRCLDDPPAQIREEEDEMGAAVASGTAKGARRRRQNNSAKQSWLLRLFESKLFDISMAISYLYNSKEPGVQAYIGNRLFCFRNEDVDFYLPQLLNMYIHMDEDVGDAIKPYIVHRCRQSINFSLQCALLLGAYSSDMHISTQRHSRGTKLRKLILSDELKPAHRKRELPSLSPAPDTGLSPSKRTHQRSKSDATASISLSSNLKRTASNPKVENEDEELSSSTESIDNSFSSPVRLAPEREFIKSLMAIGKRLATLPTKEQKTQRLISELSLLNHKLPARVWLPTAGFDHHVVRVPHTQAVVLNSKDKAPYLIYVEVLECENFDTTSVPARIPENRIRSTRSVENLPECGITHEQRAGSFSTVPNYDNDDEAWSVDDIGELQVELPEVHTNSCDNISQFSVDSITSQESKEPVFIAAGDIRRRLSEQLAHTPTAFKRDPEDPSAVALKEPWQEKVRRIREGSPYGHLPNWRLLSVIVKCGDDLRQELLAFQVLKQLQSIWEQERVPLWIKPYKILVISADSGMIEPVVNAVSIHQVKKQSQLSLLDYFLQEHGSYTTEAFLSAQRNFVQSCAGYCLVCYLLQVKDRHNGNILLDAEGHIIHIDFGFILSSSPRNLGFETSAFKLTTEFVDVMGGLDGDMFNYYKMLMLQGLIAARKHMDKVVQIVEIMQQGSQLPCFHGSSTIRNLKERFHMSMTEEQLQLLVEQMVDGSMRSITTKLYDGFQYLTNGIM

IC50 [1]	IC50 [2]	IC50 [3]	IC50 [4]	IC50 [5]	IC50 [6]	IC50 [7]	Assay M RLM CI(int) [8]	IC50 [9]	IC50 [10]	IC50 [11]	IC50 [12]	IC50 [13]	IC50 [14]	Compound
261 nM	1000 nM	78 nM	690 nM	6700 nM	> 10000 nM	12 nM	26 µL/min/mg	> 10000 nM	680 nM	> 10000 nM	3450 nM	> 10000 nM	696 nM	Cc1ccc(S(=O)(=O)NCC2(C)COC2)cc1-c1cnc(N)c(-c2cnn(C)c2)n1 [Example 5, 3-[5-Amino-6-(1-methyl-1H-pyrazol-4-yl)-pyrazin-2-yl]-4-methyl-N-(3-methyl-oxetan-3-ylmethyl)-benzenesulfonamide]
2340 nM	1030 nM	153 nM	3150 nM	> 10000 nM	210 nM	79 nM	71 µL/min/mg	2190 nM	620 nM	> 10000 nM	1390 nM	1700 nM	742 nM	Cc1ncn(-c2nc(-c3cc(S(=O)(=O)NCC(C)(C)O)ccc3C)cnc2N)n1 [Example 25, 3-[5-Amino-6-(3-methyl-[1,2,4]triazol-1-yl)-pyrazin-2-yl]-N-(2-hydroxy-2-methyl-propyl)-4-methyl-benzenesulfonamide]
945 nM	–	577 nM	> 10000 nM	> 10000 nM	> 10000 nM	36 nM	85 µL/min/mg	> 10000 nM	900 nM	> 10000 nM	> 10000 nM	> 3000 nM	727 nM	Cc1ccc(S(=O)(=O)NCC(C)(C)O)cc1-c1cnc(N)c(-n2cnc(CN(C)C)n2)n1 [Example 117, 3-(5-Amino-6-(3-((dimethylamino)methyl)-1H-1,2,4-triazol-1-yl)pyrazin-2-yl)-N-(2-hydroxy-2-methylpropyl)-4-methylbenzenesulfonamide hydrochloride salt]
90 nM	80 nM	18 nM	150 nM	1500 nM	690 nM	6 nM	109 µL/min/mg	510 nM	40 nM	1400 nM	460 nM	590 nM	244 nM	Cc1ccc(S(=O)(=O)NCC(C)(C)O)cc1-c1cnc(N)c(-c2cnc(C3CC3)s2)n1 [Example 21, 3-[5-Amino-6-(2-cyclopropyl-thiazol-5-yl)-pyrazin-2-yl]-N-(2-hydroxy-2-methyl-propyl)-4-methyl-benzenesulfonamide]
59 nM	150 nM	22 nM	240 nM	1600 nM	–	5 nM	37 µL/min/mg	7040 nM	60 nM	2300 nM	> 10000 nM	> 10000 nM	413 nM	Cc1ncc(-c2nc(-c3cc(S(=O)(=O)NCC4(CO)COC4)ccc3C)cnc2N)s1 [Example 44, 3-(5-Amino-6-(2-methylthiazol-5-yl)pyrazin-2-yl)-N-((3-(hydroxymethyl)oxetan-3-yl)methyl)-4-methylbenzenesulfonamide]
163 nM	330 nM	58 nM	260 nM	640 nM	> 10000 nM	38 nM	112 µL/min/mg	5780 nM	310 nM	–	410 nM	3010 nM	5560 nM	Cc1ccc(S(=O)(=O)NCCC(C)(C)O)cc1-c1cnc(N)c(-c2cscn2)n1 [Example 108, 3-(5-Amino-6-(thiazol-4-yl)pyrazin-2-yl)-N-(3-hydroxy-3-methylbutyl)-4-methylbenzenesulfonamide]
